ChEMBL document CHEMBL2016457, “Discovery of potent and orally bioavailable 17β-hydroxysteroid dehydrogenase type 3 inhibitors” (Bioorg Med Chem, 2012)
Active and inactive are the calls of the source.

Columns and labels:
[1] = target: T1, 17-beta-hydroxysteroid dehydrogenase type 2 (Homo sapiens) (UniProt P37059); assay: Inhibition of human recombinant 17-beta-HSD2 expressed in human HeLa cells using estradiol as substrate preincubated for 30 mins prior substrate addition measured after 120 mins by spectrophotometry; format: cell-based
T1 sequence (whole entry): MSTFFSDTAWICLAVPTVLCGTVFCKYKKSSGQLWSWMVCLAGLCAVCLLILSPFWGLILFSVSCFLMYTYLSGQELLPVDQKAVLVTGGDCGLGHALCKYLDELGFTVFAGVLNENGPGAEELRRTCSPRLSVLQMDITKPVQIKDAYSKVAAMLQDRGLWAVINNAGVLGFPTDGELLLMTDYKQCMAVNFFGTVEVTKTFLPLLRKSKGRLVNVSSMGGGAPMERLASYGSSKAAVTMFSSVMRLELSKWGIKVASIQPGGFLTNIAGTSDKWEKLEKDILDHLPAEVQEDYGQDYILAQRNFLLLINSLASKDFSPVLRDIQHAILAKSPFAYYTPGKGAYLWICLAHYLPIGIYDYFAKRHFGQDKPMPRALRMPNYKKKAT

[2] = target: T2, 17-beta-hydroxysteroid dehydrogenase type 1 (Homo sapiens) (UniProt P14061); assay: Inhibition of human recombinant 17-beta-HSD1 expressed in human HeLa cells using estrone as substrate preincubated for 30 mins prior substrate addition measured after 120 mins by spectrophotometry; format: cell-based
T2 sequence (whole entry): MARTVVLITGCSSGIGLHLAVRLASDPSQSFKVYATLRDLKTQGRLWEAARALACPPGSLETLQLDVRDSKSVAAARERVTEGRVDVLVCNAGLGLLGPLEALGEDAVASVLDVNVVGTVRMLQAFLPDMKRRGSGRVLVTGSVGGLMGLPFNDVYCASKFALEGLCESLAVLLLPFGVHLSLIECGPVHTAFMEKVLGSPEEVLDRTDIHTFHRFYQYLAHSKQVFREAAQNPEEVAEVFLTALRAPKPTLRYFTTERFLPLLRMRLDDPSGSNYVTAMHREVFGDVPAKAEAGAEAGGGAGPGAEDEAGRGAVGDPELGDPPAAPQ

[3] = target: T3, Androgen receptor (Homo sapiens) (UniProt P10275); assay: Agonist activity at human androgen receptor expressed in human HeLa cells assessed as DHT-induced response after 40 hrs by luciferase/beta-galactosidase-based reporter gene assay; format: functional, cell-based
T3 sequence (whole entry): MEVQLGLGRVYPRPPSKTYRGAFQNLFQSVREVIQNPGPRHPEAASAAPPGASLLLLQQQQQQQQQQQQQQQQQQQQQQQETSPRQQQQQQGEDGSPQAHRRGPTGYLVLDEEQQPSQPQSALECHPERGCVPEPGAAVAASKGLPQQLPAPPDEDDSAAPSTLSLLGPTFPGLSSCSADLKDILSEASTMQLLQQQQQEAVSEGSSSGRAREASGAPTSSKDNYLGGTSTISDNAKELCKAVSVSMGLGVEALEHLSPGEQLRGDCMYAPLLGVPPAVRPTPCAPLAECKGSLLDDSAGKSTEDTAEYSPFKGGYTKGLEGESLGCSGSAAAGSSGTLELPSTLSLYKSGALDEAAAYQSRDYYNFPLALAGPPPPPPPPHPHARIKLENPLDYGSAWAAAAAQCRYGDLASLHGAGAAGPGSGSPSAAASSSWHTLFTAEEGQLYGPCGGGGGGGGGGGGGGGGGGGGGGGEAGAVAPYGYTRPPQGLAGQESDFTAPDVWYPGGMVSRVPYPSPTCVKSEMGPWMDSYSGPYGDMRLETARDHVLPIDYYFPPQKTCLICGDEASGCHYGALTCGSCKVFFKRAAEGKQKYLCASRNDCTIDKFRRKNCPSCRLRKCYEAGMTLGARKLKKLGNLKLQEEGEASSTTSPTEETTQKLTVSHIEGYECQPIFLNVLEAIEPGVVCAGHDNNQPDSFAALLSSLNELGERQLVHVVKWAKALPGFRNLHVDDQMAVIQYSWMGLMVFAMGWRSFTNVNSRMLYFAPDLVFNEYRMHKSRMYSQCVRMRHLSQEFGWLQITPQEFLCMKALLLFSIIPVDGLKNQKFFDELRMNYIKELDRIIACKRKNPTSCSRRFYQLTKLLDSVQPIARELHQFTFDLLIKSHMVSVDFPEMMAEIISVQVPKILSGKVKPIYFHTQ

[4] = target: T4, Glucocorticoid receptor (Homo sapiens) (UniProt P04150); assay: Antagonist activity at human GR receptor expressed in human HeLa cells assessed as inhibition of DHT-induced response after 40 hrs by luciferase/beta-galactosidase-based reporter gene assay; format: functional, cell-based
T4 sequence (whole entry): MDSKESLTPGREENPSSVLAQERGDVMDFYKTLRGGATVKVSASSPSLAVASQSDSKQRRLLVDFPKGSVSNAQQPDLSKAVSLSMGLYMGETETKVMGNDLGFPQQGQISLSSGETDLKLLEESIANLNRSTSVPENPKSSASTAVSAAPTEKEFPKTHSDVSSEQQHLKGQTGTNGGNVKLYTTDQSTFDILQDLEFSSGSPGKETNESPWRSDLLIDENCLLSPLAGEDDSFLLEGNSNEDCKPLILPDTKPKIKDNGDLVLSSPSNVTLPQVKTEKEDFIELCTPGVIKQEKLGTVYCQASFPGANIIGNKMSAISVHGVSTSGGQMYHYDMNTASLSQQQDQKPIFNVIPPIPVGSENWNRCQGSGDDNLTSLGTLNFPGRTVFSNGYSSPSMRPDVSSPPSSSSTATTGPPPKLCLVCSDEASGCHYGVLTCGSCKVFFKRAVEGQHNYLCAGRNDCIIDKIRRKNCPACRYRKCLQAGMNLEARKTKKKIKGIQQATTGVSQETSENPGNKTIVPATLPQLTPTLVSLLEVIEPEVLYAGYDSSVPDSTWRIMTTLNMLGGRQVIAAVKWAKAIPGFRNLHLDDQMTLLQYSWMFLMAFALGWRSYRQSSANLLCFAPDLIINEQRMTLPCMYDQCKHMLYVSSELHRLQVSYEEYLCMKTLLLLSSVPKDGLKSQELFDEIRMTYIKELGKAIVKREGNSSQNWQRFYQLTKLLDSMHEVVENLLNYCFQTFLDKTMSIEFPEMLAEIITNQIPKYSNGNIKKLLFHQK

COc1ccc(N2C(=O)/C(=C/c3cc(Cl)c(OP(=O)(O)O)c(Cl)c3)OC2=S)cc1
inactive: inhibition [1] | inhibition [2] | Activity [3] | Activity [4]

COc1ccc(N2C(=O)/C(=C/c3cc(Cl)c(O)c(Cl)c3)OC2=S)cc1
inactive: inhibition [1] | inhibition [2] | Activity [3] | Activity [4]
